Assays:
HSC-iNKT cells [1] = assay: GCV in vivo killing assay, NSG xenograft mouse model; design: species or system human cells in NSG mice; settings: GCV i.p. 50 mg/kg per day, 5 days
Description: (§1) To increase the safety profile of HSC-iNKT cell product, we included an sr39TK PET imaging/suicide gene in the lentiviral vector, which allows for the in vivo monitoring of these cells using PET imaging and the elimination of these cells through ganciclovir (GCV)-induced depletion in case of an adverse event (FIGS S1A and 1B in Li et al.).
GCV in vivo killing assay was performed using an NSG xenograft mouse model. NSG mice received i.v. injection of 1×10^7 HSC-iNKT cells on day 0, followed by i.p. injection of GCV for 5 consecutive days (50 mg/kg per injection per day). On day 5, mice were terminated. Multiple tissues (i.e., blood, spleen, liver, and lung) were collected and processed for flow cytometry analysis to detect tissue-infiltrating HSC-iNKT cells (identified as iNKT TCR^+CD45^+), following established protocols (Li et al., 2021b; Y. R. Li et al., 2022; Zhu et al., 2019).

HSC-iNKT cells [2] = assay: GCV in vitro killing assay; assay type: cell-based, human; settings: GCV 0-50 μM, 4 days
Description: as §1
For GCV in vitro killing assays, HSC-iNKT cells were cultured in C10 medium in the presence of titrated amount of GCV (0-50 μM) for 4 days; live HSC-iNKT cells were then counted using a hematocytometer (VWR) via Trypan Blue staining (Fisher Scientific).

Compound: Nc1nc(O)c2ncn(COC(CO)CO)c2n1 [GCV, Ganciclovir]
- depletion of HSC-iNKT cells from blood, liver, spleen and lung (HSC-iNKT cells [1]): efficient depletion
- killing of HSC-iNKT cells in cell culture (HSC-iNKT cells [2]): effective killing
